Results: patent publication US12486267B2, “Imidazo[1,2-A]pyridine and [1,2,4]triazolo[1,5-A]pyridine derivatives as TLR9 inhibitors for the treatment of fibrosis” (BRISTOL-MYERS SQUIBB COMPANY, priority 2020, dated 2025)

Key:
Assay type in all cases: cell-based
human TLR9 = target: T1, human TLR9 (Homo sapiens, UniProt Q9NR96); test: TLR9 inhibition reporter assay (HEK-Blue cells, SEAP reporter); conditions: HEK-Blue cells overexpressing human TLR9; stimulated with ODN2006 5 nM; 22 hour incubation; SEAP readout
T1 sequence (Q9NR96 26-1032): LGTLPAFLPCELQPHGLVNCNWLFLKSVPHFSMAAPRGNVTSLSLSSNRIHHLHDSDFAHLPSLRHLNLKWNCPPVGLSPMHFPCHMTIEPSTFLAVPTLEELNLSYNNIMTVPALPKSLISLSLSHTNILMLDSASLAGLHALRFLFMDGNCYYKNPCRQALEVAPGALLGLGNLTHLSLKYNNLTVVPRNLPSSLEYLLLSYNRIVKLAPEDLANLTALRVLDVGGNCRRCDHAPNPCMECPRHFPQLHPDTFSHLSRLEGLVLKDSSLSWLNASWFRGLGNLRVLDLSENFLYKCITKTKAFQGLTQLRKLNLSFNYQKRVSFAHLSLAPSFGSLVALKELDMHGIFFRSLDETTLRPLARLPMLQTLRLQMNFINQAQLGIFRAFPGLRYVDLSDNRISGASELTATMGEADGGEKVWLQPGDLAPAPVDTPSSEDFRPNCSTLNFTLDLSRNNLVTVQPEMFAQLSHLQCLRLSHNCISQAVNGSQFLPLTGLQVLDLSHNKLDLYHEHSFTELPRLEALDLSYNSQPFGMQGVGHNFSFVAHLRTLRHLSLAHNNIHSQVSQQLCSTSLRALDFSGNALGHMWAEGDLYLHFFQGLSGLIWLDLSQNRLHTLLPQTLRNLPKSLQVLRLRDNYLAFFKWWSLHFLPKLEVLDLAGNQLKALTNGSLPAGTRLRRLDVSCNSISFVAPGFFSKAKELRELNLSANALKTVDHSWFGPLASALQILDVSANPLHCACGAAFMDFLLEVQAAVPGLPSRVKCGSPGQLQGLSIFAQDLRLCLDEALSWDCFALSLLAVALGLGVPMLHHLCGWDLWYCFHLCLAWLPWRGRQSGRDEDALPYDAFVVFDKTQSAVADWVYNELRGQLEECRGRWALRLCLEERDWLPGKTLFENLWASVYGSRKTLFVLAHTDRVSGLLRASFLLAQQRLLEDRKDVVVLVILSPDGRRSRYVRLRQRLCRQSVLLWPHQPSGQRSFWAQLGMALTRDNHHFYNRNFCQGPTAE
Summary of the method: (§1)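 HEK-Blue cells with an NF-κB/AP-1-driven SEAP reporter were pre-treated 30 min at room temperature with compound (0.05 nM–50 μM), then stimulated with gardiquimod 7.5 μM (TLR7), R848 15.9 μM (TLR8) or ODN2006 5 nM (TLR9). After 22 h at 37 °C, SEAP was read; % inhibition was referenced to agonist+DMSO and known-inhibitor wells.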

human TLR7 = target: T2, human TLR7 (Homo sapiens, UniProt Q9NYK1); test: TLR7 inhibition reporter assay (HEK-Blue cells, SEAP reporter); conditions: HEK-Blue cells overexpressing human TLR7; stimulated with gardiquimod 7.5 μM; 22 hour incubation; SEAP readout
T2 sequence (Q9NYK1 27-1049): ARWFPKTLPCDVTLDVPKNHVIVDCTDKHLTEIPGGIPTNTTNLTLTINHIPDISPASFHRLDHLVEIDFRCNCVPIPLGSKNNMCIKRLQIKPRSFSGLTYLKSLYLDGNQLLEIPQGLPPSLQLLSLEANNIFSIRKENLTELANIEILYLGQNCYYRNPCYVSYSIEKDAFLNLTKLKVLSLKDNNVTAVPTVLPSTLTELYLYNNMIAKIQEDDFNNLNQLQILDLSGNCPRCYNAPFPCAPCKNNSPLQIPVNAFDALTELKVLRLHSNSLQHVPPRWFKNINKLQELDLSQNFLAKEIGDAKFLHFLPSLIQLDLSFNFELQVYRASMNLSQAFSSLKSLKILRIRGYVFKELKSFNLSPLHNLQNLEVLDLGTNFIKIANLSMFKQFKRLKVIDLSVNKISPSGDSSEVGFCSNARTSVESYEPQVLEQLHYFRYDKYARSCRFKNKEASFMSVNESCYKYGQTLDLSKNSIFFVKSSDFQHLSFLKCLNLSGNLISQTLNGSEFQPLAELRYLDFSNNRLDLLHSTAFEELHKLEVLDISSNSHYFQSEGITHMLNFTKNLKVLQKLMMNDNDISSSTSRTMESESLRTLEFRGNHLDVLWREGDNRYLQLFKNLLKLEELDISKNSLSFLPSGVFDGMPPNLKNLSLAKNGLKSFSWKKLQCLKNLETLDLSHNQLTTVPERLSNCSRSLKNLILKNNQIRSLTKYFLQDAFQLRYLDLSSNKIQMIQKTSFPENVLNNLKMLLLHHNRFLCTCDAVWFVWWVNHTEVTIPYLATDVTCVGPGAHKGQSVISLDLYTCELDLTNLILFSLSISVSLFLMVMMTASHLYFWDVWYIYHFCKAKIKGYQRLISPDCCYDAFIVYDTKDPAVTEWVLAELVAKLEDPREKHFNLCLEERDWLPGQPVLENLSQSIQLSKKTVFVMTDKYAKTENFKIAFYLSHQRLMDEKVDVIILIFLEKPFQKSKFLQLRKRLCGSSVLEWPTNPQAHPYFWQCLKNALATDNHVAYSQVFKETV
Summary of the method: as §1

human TLR8 = target: T3, human TLR8 (Homo sapiens, UniProt Q9NR97); test: TLR8 inhibition reporter assay (HEK-Blue cells, SEAP reporter); conditions: HEK-Blue cells overexpressing human TLR8; stimulated with R848 15.9 μM; 22 hour incubation; SEAP readout
T3 sequence (Q9NR97 27-1041): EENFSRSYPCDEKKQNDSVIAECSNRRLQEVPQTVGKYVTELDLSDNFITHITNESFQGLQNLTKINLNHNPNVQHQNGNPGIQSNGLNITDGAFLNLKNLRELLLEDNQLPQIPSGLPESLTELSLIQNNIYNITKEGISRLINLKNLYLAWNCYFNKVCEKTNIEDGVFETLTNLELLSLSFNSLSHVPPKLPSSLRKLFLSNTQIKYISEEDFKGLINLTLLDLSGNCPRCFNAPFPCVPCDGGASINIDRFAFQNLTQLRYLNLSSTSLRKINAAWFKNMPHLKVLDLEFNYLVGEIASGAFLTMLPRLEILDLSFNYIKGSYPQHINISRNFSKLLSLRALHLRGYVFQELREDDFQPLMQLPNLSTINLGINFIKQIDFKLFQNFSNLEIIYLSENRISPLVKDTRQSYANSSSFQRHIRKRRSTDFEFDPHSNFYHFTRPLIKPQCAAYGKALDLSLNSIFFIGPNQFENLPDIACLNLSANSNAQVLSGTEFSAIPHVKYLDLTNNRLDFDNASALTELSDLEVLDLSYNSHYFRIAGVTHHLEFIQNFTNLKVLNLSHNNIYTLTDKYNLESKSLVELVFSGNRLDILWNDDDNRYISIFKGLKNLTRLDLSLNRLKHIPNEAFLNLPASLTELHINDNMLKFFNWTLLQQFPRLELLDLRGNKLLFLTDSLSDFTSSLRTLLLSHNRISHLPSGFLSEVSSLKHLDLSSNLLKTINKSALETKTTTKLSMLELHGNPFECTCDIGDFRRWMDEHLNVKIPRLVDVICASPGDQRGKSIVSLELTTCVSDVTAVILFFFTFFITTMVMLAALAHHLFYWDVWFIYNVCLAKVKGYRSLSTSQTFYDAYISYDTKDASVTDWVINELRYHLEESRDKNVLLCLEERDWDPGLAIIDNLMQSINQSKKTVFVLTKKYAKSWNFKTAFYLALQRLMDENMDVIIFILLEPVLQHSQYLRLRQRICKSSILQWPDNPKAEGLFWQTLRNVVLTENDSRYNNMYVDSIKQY
Summary of the method: as §1

| Compound | IC50 (human TLR9) [nM] | IC50 (human TLR7) [nM] | IC50 (human TLR8) [nM] |
| --- | --- | --- | --- |
| CC(C)CN1C2CCC1CC(N1CCC(c3cc(F)c4nc(-c5ccc(S(C)(=O)=O)cc5)cn4c3)CC1)C2 (single isomer, unassigned) [Example 114, 8-fluoro-6-(1-(8-isobutyl-8-azabicyclo[3.2.1]octan-3-yl)piperidin-4-yl)-2-(4-(methylsulfonyl)phenyl)imidazo[1,2-a]pyridine] | 66 | 2000 | 17000 |
| COc1ccc(-c2cn3c(n2)CC[C@@H](C2CCN(C4CC5CCC(C4)N5CC(C)C)CC2)C3)cc1OC (single isomer, unassigned) [Example 78] | 108 | 8600 | > 25000 |
| Cc1cc(C2CCN(C3CCN(CC(C)C)CC3)CC2)cn2cc(-c3ccc(S(C)(=O)=O)cc3)nc12 [Example 9, 6-(1′-isobutyl-[1,4′-bipiperidin]-4-yl)-8-methyl-2-(4-(methylsulfonyl)phenyl) imidazo[1,2-a]pyridine] | 42 | 3300 | > 50000 |
| CC(C)CN1C2CCC1CC(N1CCC([C@H]3CCc4nc(-c5ccc(S(C)(=O)=O)cc5)cn4C3)CC1)C2 (single isomer, unassigned) [Example 80] | 52 | > 50000 | > 50000 |
| COc1ccc(-c2cn3cc(C4CCN(C5CC6(C5)CN(C5CCC5)C6)CC4)cc(C)c3n2)cc1OC [Example 14, 6-(1-(2-cyclobutyl-2-azaspiro[3.3]heptan-6-yl)piperidin-4-yl)-2-(3,4-dimethoxyphenyl)-8-methylimidazo[1,2-a]pyridine] | 68 | > 50000 | > 50000 |
| CC(C)N1CCCC(N2CCC(c3cc(F)c4nc(-c5ccc(S(C)(=O)=O)cc5)cn4c3)CC2)CC1 (single isomer, unassigned) [Example 71, 8-fluoro-6-(1-(1-isopropylazepan-4-yl)piperidin-4-yl)-2-(4-(methylsulfonyl)phenyl)imidazo[1,2-a]pyridine] | 39 | 3000 | > 50000 |
| COc1ccc(-c2cn3c(n2)CCC(C2CCN(C4CCN(CC(C)C)CC4)CC2)C3)cc1OC (single isomer, unassigned) [Example 32, 2-(3,4-dimethoxyphenyl)-6-(1′-isobutyl-[1,4′-bipiperidin]-4-yl)-5,6,7,8-tetrahydroimidazo[1,2-a]pyridine] | 38 | 2800 | > 50000 |
| COc1ccc(-c2cn3c(n2)CCC(C2CCN(C4CC5(C4)CN(C(C)C)C5)CC2)C3)cc1OC (single isomer, unassigned) [Example 46, 2-(3,4-dimethoxyphenyl)-6-(1-(2-isopropyl-2-azaspiro[3.3]heptan-6-yl)piperidin-4-yl)-5,6,7,8-tetrahydroimidazo[1,2-a]pyridine] | 272 | 30000 | > 50000 |
| Cc1cc(C2CCN(C3CCN(C(C)C)CC3)CC2)cn2cc(-c3ccc(S(C)(=O)=O)cc3)nc12 [Example 8, 6-(1′-isopropyl-[1,4′-bipiperidin]-4-yl)-8-methyl-2-(4-(methylsulfonyl)phenyl) imidazo[1,2-a]pyridine] | 21 | 2300 | > 50000 |
| COc1ccc(-c2cn3cc(-c4ccc(N5CCN(CC(C)C)CC5)cc4)cc(C)c3n2)cc1OC [Example 94, 2-(3,4-dimethoxyphenyl)-6-(4-(4-isobutylpiperazin-1-yl)phenyl)-8-methylimidazo[1,2-a]pyridine] | 220 | > 50000 | > 50000 |
| COc1ccc(-c2cn3c(n2)CCC(C2CCN(C4CCN(C(=O)C(C)C)CC4)CC2)C3)cc1OC (single isomer, unassigned) [Example 41, 1-(4-(2-(3,4-dimethoxyphenyl)-5,6,7,8-tetrahydroimidazo[1,2-a]pyridin-6-yl)-[1,4′-bipiperidin]-1′-yl)-2-methylpropan-1-one] | 161 | > 50000 | > 50000 |
| COc1ccc(-c2cn3c(n2)CCC(C2CCN(C4CCN(CC5CC5)CC4)CC2)C3)cc1OC (racemic) [Example 55, 6-(1′-(cyclopropylmethyl)-[1,4′-bipiperidin]-4-yl)-2-(3,4-dimethoxyphenyl)-5,6,7,8-tetrahydroimidazo[1,2-a]pyridine] | 38 | 1600 | > 50000 |
| CS(=O)(=O)c1ccc(-c2cn3c(n2)CC[C@H](C2CCN(C4CC5CCC(C4)N5CC4CC4)CC2)C3)cc1 (single isomer, unassigned) [Example 139] | 33 | 10700 | > 50000 |
| COc1ccc(-c2cn3c(n2)CCC(C2CCN(C4CC5(C4)CN(C(C)C)C5)CC2)C3)cc1OC (single isomer, unassigned) [Example 47, 2-(3,4-dimethoxyphenyl)-6-(1-(2-isopropyl-2-azaspiro[3.3]heptan-6-yl)piperidin-4-yl)-5,6,7,8-tetrahydroimidazo[1,2-a]pyridine] | 47 | > 50000 | > 50000 |
